Results published in PubChem BioAssay AID330 (DTP/NCI, 2004).
Where “and” joins values, the source holds several entries; their conditions need not be identical. Equal entries are not always repeated. Inconclusive results and toxic doses are left out.

Tested on: P388 leukemia ip, CD2F1 mice, survival T/C
Test: NCI In Vivo Anticancer Drug Screen. Data for tumor model P388 Leukemia (intraperitoneal) in CD2F1 (CDF1) mice
Settings: endpoint: median survival time, higher = longer survival
Outline: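 Mice carrying the transplanted tumor received test compound or vehicle. Survival was recorded in each group, and the value is the treated-group measurement divided by that of the vehicle-treated control group.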

[1] = dose: 50.0 mg/kg/injection, schedule: Q01DX009 (ip), vehicle: saline
[2] = dose: 100.0 mg/kg/injection, schedule: Q01DX009 (ip), vehicle: saline
[3] = dose: 200.0 mg/kg/injection, schedule: Q01DX009 (ip), vehicle: saline
[4] = dose: 25.0 mg/kg/injection, schedule: Q01DX009 (ip), vehicle: Klucel (hydroxypropylcellulose) (HPC)
[5] = dose: 50.0 mg/kg/injection, schedule: Q01DX009 (ip), vehicle: Klucel (hydroxypropylcellulose) (HPC)
[6] = dose: 100.0 mg/kg/injection, schedule: Q01DX009 (ip), vehicle: Klucel (hydroxypropylcellulose) (HPC)
[7] = dose: 200.0 mg/kg/injection, schedule: Q01DX009 (ip), vehicle: Klucel (hydroxypropylcellulose) (HPC)
[8] = dose: 50.0 mg/kg/injection, schedule: Q01DX005 (ip), vehicle: Klucel (hydroxypropylcellulose) (HPC)
[9] = dose: 100.0 mg/kg/injection, schedule: Q01DX005 (ip), vehicle: Klucel (hydroxypropylcellulose) (HPC)
[10] = dose: 200.0 mg/kg/injection, schedule: Q01DX005 (ip), vehicle: Klucel (hydroxypropylcellulose) (HPC)

Question: How did the T/C (dose: 60.0 mg/kg/injection, schedule: Q01DX005 (ip), vehicle: saline + Tween-80 + alcohol) turn out when `NC(=O)/C=C\C(=O)NC1CCSC1=O` (stereo not drawn) was run?
Answer: 105 % of control

Question: And the T/C (dose: 120.0 mg/kg/injection, schedule: Q01DX005 (ip), vehicle: saline + Tween-80 + alcohol)?
Answer: 94 % of control

Question: And the T/C (dose: 240.0 mg/kg/injection, schedule: Q01DX005 (ip), vehicle: saline + Tween-80 + alcohol)?
Answer: 100 % of control

Question: Which results are given for `CNC(=O)c1ccc[n+](C2OC(COC(C)=O)C(OC(C)=O)C2OC(C)=O)c1` (stereo not drawn)?
Answer: T/C (dose: 50.0 mg/kg/injection, schedule: Q01DX005 (ip), vehicle: saline with Tween-80): 100 % of control; T/C (dose: 100.0 mg/kg/injection, schedule: Q01DX005 (ip), vehicle: saline with Tween-80): 97 % of control; T/C (dose: 200.0 mg/kg/injection, schedule: Q01DX005 (ip), vehicle: saline with Tween-80): 91 % of control

Question: What does the source list for `C=C(CCCC)CNCCOC(=O)c1ccc([N+](=O)[O-])cc1`?
Answer: T/C (dose: 12.5 mg/kg/injection, schedule: Q04DX003 (ip), vehicle: saline): 104 % of control; T/C (dose: 25.0 mg/kg/injection, schedule: Q04DX003 (ip), vehicle: saline): 104 % of control; T/C (dose: 50.0 mg/kg/injection, schedule: Q04DX003 (ip), vehicle: saline): 104 % of control

Question: `Cc1cc(N(CCCl)CCCl)ccc1N=Nc1ccccc1C(=O)[O-].Cc1cc(N(CCCl)CCCl)ccc1N=Nc1ccccc1C(=O)[O-].[Cu+2]` was tested. Which T/C (dose: 12.0 mg/kg/injection, schedule: Q04DX003 (ip), vehicle: saline with Tween-80) did it give?
Answer: 150 % of control

Question: And the T/C (dose: 12.5 mg/kg/injection, schedule: Q01DX009 (ip), vehicle: saline with Tween-80)?
Answer: 209 % of control

Question: And the T/C (dose: 12.5 mg/kg/injection, schedule: Q04DX003 (ip), vehicle: saline with Tween-80)?
Answer: 154 % of control

Question: And the T/C (dose: 25.0 mg/kg/injection, schedule: Q01DX009 (ip), vehicle: saline with Tween-80)?
Answer: 95 % of control

Question: And the T/C (dose: 25.0 mg/kg/injection, schedule: Q04DX003 (ip), vehicle: saline with Tween-80)?
Answer: 195 % of control

Question: And the T/C (dose: 50.0 mg/kg/injection, schedule: Q04DX003 (ip), vehicle: saline with Tween-80)?
Answer: 95 % of control

Question: What about the T/C (dose: 375.0 micrograms/kg/injection, schedule: Q04DX003 (ip), vehicle: saline) of the same compound?
Answer: 109 % of control

Question: And the T/C (dose: 750.0 micrograms/kg/injection, schedule: Q04DX003 (ip), vehicle: saline)?
Answer: 109 % of control

Question: And the T/C (dose: 1500.0 micrograms/kg/injection, schedule: Q04DX003 (ip), vehicle: saline)?
Answer: 104 % of control

Question: How did the T/C [1] turn out when `CCOC(=O)c1cnc2ccccn2c1=O` was run?
Answer: 90 % of control

Question: What about the T/C [2] of the same compound?
Answer: 88 % of control

Question: What does the source list for `Nc1cc(C(F)(F)F)ccc1-c1ccn[nH]1`?
Answer: T/C [1]: 94 % of control; T/C [2]: 97 % of control; T/C [3]: 96 % of control

Question: For `Cc1cc(O)cc(O)c1C(=O)OC1C[C@@]2(C)C1=C(CO)C[C@@H]1CC(C)(C)C[C@@H]12` (stereo partly drawn), which T/C (dose: 1.25 mg/kg/injection, schedule: Q01DX005 (ip), vehicle: Klucel (hydroxypropylcellulose) (HPC)) is on record?
Answer: 96 % of control

Question: What about the T/C (dose: 2.5 mg/kg/injection, schedule: Q01DX005 (ip), vehicle: Klucel (hydroxypropylcellulose) (HPC)) of the same compound?
Answer: 99 % of control

Question: What about the T/C (dose: 5.0 mg/kg/injection, schedule: Q01DX005 (ip), vehicle: Klucel (hydroxypropylcellulose) (HPC)) of the same compound?
Answer: 96 % of control

Question: What about the T/C (dose: 10.0 mg/kg/injection, schedule: Q01DX005 (ip), vehicle: Klucel (hydroxypropylcellulose) (HPC)) of the same compound?
Answer: 96 % of control

Question: What about the T/C (dose: 20.0 mg/kg/injection, schedule: Q01DX005 (ip), vehicle: Klucel (hydroxypropylcellulose) (HPC)) of the same compound?
Answer: 100 % of control

Question: What about the T/C (dose: 40.0 mg/kg/injection, schedule: Q01DX005 (ip), vehicle: Klucel (hydroxypropylcellulose) (HPC)) of the same compound?
Answer: 106 % of control

Question: What about the T/C (dose: 80.0 mg/kg/injection, schedule: Q01DX005 (ip), vehicle: Klucel (hydroxypropylcellulose) (HPC)) of the same compound?
Answer: 112 % of control

Question: And the T/C (dose: 160.0 mg/kg/injection, schedule: Q01DX005 (ip), vehicle: Klucel (hydroxypropylcellulose) (HPC))?
Answer: 104 % of control

Question: What does the source list for `O=C(Nc1nccs1)Nc1ccccc1C(F)(F)F`?
Answer: T/C [4]: 115 % of control; T/C [5]: 108 % of control; T/C [6]: 106 % of control; T/C (dose: 100.0 mg/kg/injection, schedule: Q01DX009 (ip), vehicle: saline with Tween-80): 92 % of control; T/C [7]: 111 % of control; T/C (dose: 200.0 mg/kg/injection, schedule: Q01DX009 (ip), vehicle: saline with Tween-80): 90 % of control; T/C (dose: 400.0 mg/kg/injection, schedule: Q01DX009 (ip), vehicle: saline with Tween-80): 88 % of control

Question: What does the source list for `CCC(C)C(NC(=O)OC(C)(C)C)C(=O)O` (stereo not drawn)?
Answer: T/C [8]: 103 % of control; T/C [9]: 100 % of control; T/C [10]: 100 % of control

Question: How did the T/C [1] turn out when `CCCCCCCCCC[N+]1([O-])CCOCC1` was run?
Answer: 100 % of control

Question: And the T/C [2]?
Answer: 89 % of control

Question: Which results are given for `CC(=O)NN1C(=O)Cc2ccccc2C1C(N)=O` (stereo not drawn)?
Answer: T/C [5]: 103 % of control; T/C [6]: 111 % of control; T/C [7]: 103 % of control

Question: With `CCCCCCCC/C=C\CCCCCCCC(=O)O` as the compound, how does the T/C (dose: 50.0 mg/kg/injection, schedule: Q04DX003 (ip), vehicle: Klucel (hydroxypropylcellulose) (HPC)) read?
Answer: 104 % of control

Question: And the T/C (dose: 100.0 mg/kg/injection, schedule: Q04DX003 (ip), vehicle: Klucel (hydroxypropylcellulose) (HPC))?
Answer: 103 % of control and 97 % of control

Question: What about the T/C (dose: 200.0 mg/kg/injection, schedule: Q04DX003 (ip), vehicle: Klucel (hydroxypropylcellulose) (HPC)) of the same compound?
Answer: 102 % of control and 93 % of control

Question: What about the T/C (dose: 400.0 mg/kg/injection, schedule: Q04DX003 (ip), vehicle: Klucel (hydroxypropylcellulose) (HPC)) of the same compound?
Answer: 92 % of control

Question: With `CCCCCCC(=O)CC(SCCN)c1ccccc1Cl` (stereo not drawn) as the compound, how does the T/C (dose: 3.75 mg/kg/injection, schedule: Q01DX005 (ip), vehicle: saline) read?
Answer: 100 % of control

Question: And the T/C (dose: 7.5 mg/kg/injection, schedule: Q01DX005 (ip), vehicle: saline)?
Answer: 96 % of control

Question: What about the T/C (dose: 15.0 mg/kg/injection, schedule: Q01DX005 (ip), vehicle: saline) of the same compound?
Answer: 97 % of control

Question: What about the T/C (dose: 30.0 mg/kg/injection, schedule: Q01DX005 (ip), vehicle: saline) of the same compound?
Answer: 99 % of control

Question: For `CN(C)c1ccc(C=NCCCN2CCN(CCCN=Cc3ccc(N(C)C)cc3)CC2)cc1`, which T/C (dose: 12.5 mg/kg/injection, schedule: Q01DX009 (ip), vehicle: Klucel (hydroxypropylcellulose) (HPC)) is on record?
Answer: 93 % of control

Question: What about the T/C [4] of the same compound?
Answer: 99 % of control

Question: And the T/C [5]?
Answer: 104 % of control

Question: What about the T/C [6] of the same compound?
Answer: 112 % of control

Question: What about the T/C [7] of the same compound?
Answer: 105 % of control

Question: Which results are given for `COc1cccc2c1C(=O)c1c(O)c3c(c(O)c1C2=O)C[C@@](O)(c1csc(-c2ccncc2)n1)C[C@@H]3OC1CC(N)C(O)C(C)O1` (stereo partly drawn)?
Answer: T/C (dose: 6.25 mg/kg/injection, schedule: Q04DX003 (ip), vehicle: water): 118 % of control; T/C (dose: 12.5 mg/kg/injection, schedule: Q04DX003 (ip), vehicle: water): 122 % of control; T/C (dose: 25.0 mg/kg/injection, schedule: Q04DX003 (ip), vehicle: water): 100 % of control; T/C (dose: 50.0 mg/kg/injection, schedule: Q04DX003 (ip), vehicle: water): 118 % of control; T/C (dose: 200.0 mg/kg/injection, schedule: Q04DX003 (ip), vehicle: water): 92 % of control

Question: Which results are given for `CC(C)(C)CC(C)(C)c1ccc(OCCOc2ccc(C(=O)O)cc2)cc1`?
Answer: T/C (dose: 100.0 mg/kg/injection, schedule: Q01DX001 (ip), vehicle: saline sonified): 105 % of control; T/C (dose: 200.0 mg/kg/injection, schedule: Q01DX001 (ip), vehicle: saline sonified): 110 % of control; T/C (dose: 400.0 mg/kg/injection, schedule: Q01DX001 (ip), vehicle: saline sonified): 110 % of control

Question: Which results are given for `O=C(N/N=C/c1ccc(O)cc1)c1ccc(OCc2nc3ccccc3[nH]2)cc1`?
Answer: T/C (dose: 25.0 mg/kg/injection, schedule: Q01DX005 (ip), vehicle: Klucel (hydroxypropylcellulose) (HPC)): 102 % of control; T/C [8]: 96 % of control; T/C [9]: 102 % of control; T/C [10]: 96 % of control

Question: With `COc1cc2c(ccc3cc4cccc[n+]4cc32)c(Br)c1OC` as the compound, how does the T/C (dose: 12.5 mg/kg/injection, schedule: Q01DX009 (ip), vehicle: saline sonified) read?
Answer: 104 % of control

Question: What about the T/C (dose: 25.0 mg/kg/injection, schedule: Q01DX009 (ip), vehicle: saline sonified) of the same compound?
Answer: 118 % of control

Question: What about the T/C (dose: 50.0 mg/kg/injection, schedule: Q01DX009 (ip), vehicle: saline sonified) of the same compound?
Answer: 113 % of control

Question: Which T/C (dose: 12.5 mg/kg/injection, schedule: Q01DX009 (ip), vehicle: distilled water + Tween-80) does the source give for `CC(O)CNC1=C(Cl)C(=O)c2ccccc2C1=O` (stereo not drawn) here?
Answer: 100 % of control

Question: What about the T/C (dose: 25.0 mg/kg/injection, schedule: Q01DX009 (ip), vehicle: distilled water + Tween-80) of the same compound?
Answer: 103 % of control

Question: And the T/C (dose: 50.0 mg/kg/injection, schedule: Q01DX009 (ip), vehicle: distilled water + Tween-80)?
Answer: 100 % of control

Question: What about the T/C (dose: 100.0 mg/kg/injection, schedule: Q01DX009 (ip), vehicle: distilled water + Tween-80) of the same compound?
Answer: 98 % of control

Question: What about the T/C (dose: 200.0 mg/kg/injection, schedule: Q01DX009 (ip), vehicle: distilled water + Tween-80) of the same compound?
Answer: 92 % of control

Question: Which results are given for `Cc1ccc(S(=O)(=O)N/N=C/C(C)(c2ccccc2)c2ccccc2)cc1`?
Answer: T/C (dose: 25.0 mg/kg/injection, schedule: Q01DX009 (ip), vehicle: saline): 92 % of control; T/C [1]: 99 % of control and 90 % of control; T/C [2]: 99 % of control and 94 % of control; T/C [3]: 97 % of control
